Data: publication PMC6309603 (Molecular diversity, 2018)
Read-outs that look alike come from different tables or passages of the source.

Experiments:
[1] = target: BChE (Homo sapiens, UniProt P06276); test: biochemical
[2] = target: T1, AChE (Homo sapiens, UniProt P22303); test: biochemical; settings: for Selectivity for AChE: IC50 (BChE)/IC50 (AChE)
[3] = target: T1, AChE; test: Kinetic study of AChE inhibition; type: biochemical

T1 sequence (P22303 32-614): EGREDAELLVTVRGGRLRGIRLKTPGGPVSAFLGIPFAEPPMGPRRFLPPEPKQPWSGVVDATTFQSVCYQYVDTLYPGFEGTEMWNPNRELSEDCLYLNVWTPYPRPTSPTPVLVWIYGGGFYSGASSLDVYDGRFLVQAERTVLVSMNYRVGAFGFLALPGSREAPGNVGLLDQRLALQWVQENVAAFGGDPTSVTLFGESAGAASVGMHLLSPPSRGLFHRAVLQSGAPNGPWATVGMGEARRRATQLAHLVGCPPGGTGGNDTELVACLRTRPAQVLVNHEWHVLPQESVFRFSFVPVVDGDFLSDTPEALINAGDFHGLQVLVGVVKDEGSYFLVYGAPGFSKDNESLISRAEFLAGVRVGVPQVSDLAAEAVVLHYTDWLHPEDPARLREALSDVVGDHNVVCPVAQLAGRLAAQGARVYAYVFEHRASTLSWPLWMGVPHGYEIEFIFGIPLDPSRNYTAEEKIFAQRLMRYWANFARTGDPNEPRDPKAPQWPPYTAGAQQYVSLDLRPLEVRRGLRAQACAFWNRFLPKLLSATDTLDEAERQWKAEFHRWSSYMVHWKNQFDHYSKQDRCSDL
BChE, sequence (P06276 29-602): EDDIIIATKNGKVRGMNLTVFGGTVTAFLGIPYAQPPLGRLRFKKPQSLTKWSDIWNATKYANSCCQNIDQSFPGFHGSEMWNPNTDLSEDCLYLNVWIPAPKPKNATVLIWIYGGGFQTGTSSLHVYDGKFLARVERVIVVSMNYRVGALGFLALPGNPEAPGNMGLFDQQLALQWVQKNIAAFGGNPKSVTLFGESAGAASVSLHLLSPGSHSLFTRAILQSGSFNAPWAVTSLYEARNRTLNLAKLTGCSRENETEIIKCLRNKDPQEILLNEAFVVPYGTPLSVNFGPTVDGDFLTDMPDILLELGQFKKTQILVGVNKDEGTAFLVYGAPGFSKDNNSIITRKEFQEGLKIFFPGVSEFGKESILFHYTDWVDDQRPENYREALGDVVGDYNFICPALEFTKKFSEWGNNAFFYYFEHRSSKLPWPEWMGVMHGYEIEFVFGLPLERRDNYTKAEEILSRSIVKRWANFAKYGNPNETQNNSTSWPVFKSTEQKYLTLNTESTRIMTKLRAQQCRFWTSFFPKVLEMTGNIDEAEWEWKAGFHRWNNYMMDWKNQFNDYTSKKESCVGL

SMILES	IC50 [1] [µM]	IC50 [2] [µM]	Selectivity for AChE [2]	further results
O=C(/C=C/c1ccc(OCCN2CCCC2)cc1)c1cc2ccccc2oc1=O [Compound 5e, (E)-3-(3-(4-(2-(pyrrolidin-1-yl)ethoxy)phenyl)acryloyl)-2H-chromen-2-one]	4.11 ± 0.16	0.15 ± 0.01	27.40	inhibitory activity against AChE (in words) [2]: potent inhibitory activity; selectivity over BChE (in words) [2]: high selectivity; Ki [3]: 0.11 µM; non-competitive constant (Ki′) ([3]; AChE, substrate acetylthiocholine iodide, pH 7.4, 30 °C): 0.19 µM; inhibition mechanism against AChE ([3]; Lineweaver-Burk analysis): mixed-type inhibition
O=C(/C=C/c1ccccc1OCCN1CCCC1)c1cc2ccccc2oc1=O [Compound 7e, (E)-3-(3-(2-(2-(pyrrolidin-1-yl)ethoxy)phenyl)acryloyl)-2H-chromen-2-one]	3.76 ± 0.35	230 ± 14.8	0.02	inhibitory activity against AChE (in words) [2]: poor inhibitory activity; selectivity over BChE (in words) [2]: poor selectivity
O=C(/C=C/c1ccccc1OCCN1CCCCC1)c1cc2ccccc2oc1=O [Compound 7f, (E)-3-(3-(2-(2-(piperidin-1-yl)ethoxy)phenyl)acryloyl)-2H-chromen-2-one]	4.5 ± 0.22	29.9 ± 0.98	0.15	
O=C(/C=C/c1ccccc1OCCN1CCOCC1)c1cc2ccccc2oc1=O [Compound 7h, (E)-3-(3-(2-(2-morpholinoethoxy)phenyl)acryloyl)-2H-chromen-2-one]	29 ± 1.23	261 ± 4.17	0.11	
CC(C)CCOc1ccccc1/C=C/C(=O)c1cc2ccccc2oc1=O [Compound 7i, (E)-3-(3-(2-(isopentyloxy)phenyl)acryloyl)-2H-chromen-2-one]	> 500	> 500		
CC(C)=CCOc1ccccc1/C=C/C(=O)c1cc2ccccc2oc1=O [Compound 7j, (E)-3-(3-(2-(3-methylbut-2-enyloxy)phenyl)-prop-2-enoyl)-2H-chromen-2-one]	100 ± 6.84	> 500	<0.20	
CN(C)C(=O)COc1ccc(/C=C/C(=O)c2cc3ccccc3oc2=O)cc1 [Compound 9d, (E)-N,N-dimethyl-2-(4-(3-oxo-3-(2-oxo-2H-chromen-3-yl)prop-1-en-1-yl)phenoxy)acetamide]	> 500	18.6 ± 1.06	>26.86	
O=C(/C=C/c1ccc(OCC(=O)N2CCCC2)cc1)c1cc2ccccc2oc1=O [Compound 9e, (E)-3-(3-(4-(2-oxo-2-(pyrrolidin-1-yl)ethoxy)phenyl)acryloyl)-2H-chromen-2-one]	> 500	> 500		
O=C(/C=C/c1ccc(OCC(=O)N2CCCCC2)cc1)c1cc2ccccc2oc1=O [Compound 9f, (E)-3-(3-(4-(2-oxo-2-(piperidin-1-yl)ethoxy)phenyl)acryloyl)-2H-chromen-2-one]	> 500	> 500		
CN(C)C(=O)COc1cccc(/C=C/C(=O)c2cc3ccccc3oc2=O)c1 [Compound 10d, (E)-N,N-dimethyl-2-(3-(3-oxo-3-(2-oxo-2H-chromen-3-yl)prop-1-en-1-yl)phenoxy)acetamide]	44 ± 2.37	> 500	<0.09	
O=C(/C=C/c1cccc(OCC(=O)N2CCCC2)c1)c1cc2ccccc2oc1=O [Compound 10e, (E)-3-(3-(3-(2-oxo-2-(pyrrolidin-1-yl)ethoxy)phenyl)acryloyl)-2H-chromen-2-one]	> 500	> 500		
O=C(/C=C/c1cccc(OCC(=O)N2CCCCC2)c1)c1cc2ccccc2oc1=O [Compound 10f, (E)-3-(3-(3-(2-oxo-2-(piperidin-1-yl)ethoxy)phenyl)acryloyl)-2H-chromen-2-one]	223 ± 11.5	152 ± 12.8	1.46	
CN(C)C(=O)COc1ccccc1/C=C/C(=O)c1cc2ccccc2oc1=O [Compound 11d, (E)-N,N-dimethyl-2-(2-(3-oxo-3-(2-oxo-2H-chromen-3-yl)prop-1-en-1-yl)phenoxy)acetamide]	> 500	> 500		
O=C(/C=C/c1ccccc1OCC(=O)N1CCCC1)c1cc2ccccc2oc1=O [Compound 11e, (E)-3-(3-(2-(2-oxo-2-(pyrrolidin-1-yl)ethoxy)phenyl)acryloyl)-2H-chromen-2-one]	> 500	> 500		
O=C(/C=C/c1ccccc1OCC(=O)N1CCCCC1)c1cc2ccccc2oc1=O [Compound 11f, (E)-3-(3-(2-(2-oxo-2-(piperidin-1-yl)ethoxy)phenyl)acryloyl)-2H-chromen-2-one]	106 ± 3.09	> 500		
COc1cc(/C=C/C(=O)c2cc3ccccc3oc2=O)ccc1OCCN(C)C [Compound 12k, (E)-3-(3-(4-(2-(dimethylamino)ethoxy)-3-methoxyphenyl)acryloyl)-2H-chromen-2-one]	8.48 ± 0.29	1.65 ± 0.09	5.15	
COc1cc(/C=C/C(=O)c2cc3ccccc3oc2=O)ccc1OCCN1CCCC1 [Compound 12l, (E)-3-(3-(3-methoxy-4-(2-(pyrrolidin-1-yl)ethoxy)phenyl)acryloyl)-2H-chromen-2-one]	0.46 ± 0.01	1.67 ± 0.04	0.28	
COc1cc(/C=C/C(=O)c2cc3ccccc3oc2=O)ccc1OCCN1CCCCC1 [Compound 12m, (E)-3-(3-(3-methoxy-4-(2-(piperidin-1-yl)ethoxy)phenyl)acryloyl)-2H-chromen-2-one]	0.52 ± 0.01	0.37 ± 0.02	1.41	
COc1cc(/C=C/C(=O)c2cc3ccccc3oc2=O)cc(OC)c1OCCN(C)C [Compound 13k, (E)-3-(3-(4-(2-(dimethylamino)ethoxy)-3,5-dimethoxyphenyl)acryloyl)-2-chromen-2-one]			1.87	IC50 ([1]; read-out: IC50 BChE, means±SD of three assays, 30 min, 30 °C, pH 8.0): 13.2 ± 0.32 µM; IC50 ([2]; read-out: IC50 AChE, means±SD of three assays, 30 min, 30 °C, pH 8.0): 7.07 ± 0.46 µM
COc1cc(/C=C/C(=O)c2cc3ccccc3oc2=O)cc(OC)c1OCCN1CCCC1 [Compound 13l, (E)-3-(3-(3,5-dimethoxy-4-(2-(pyrrolidin-1-yl)ethoxy)phenyl)acryloyl)-2H-chromen-2-one]	13.6 ± 0.53	29 ± 1.68	0.47	
COc1cc(/C=C/C(=O)c2cc3ccccc3oc2=O)cc(OC)c1OCCN1CCCCC1 [Compound 13m, (E)-3-(3-(3,5-dimethoxy-4-(2-(piperidin-1-yl)ethoxy)phenyl)acryloyl)-2H-chromen-2-one]	6.41 ± 0.36	9.58 ± 0.8	0.67	
